# Experimental data taken from patent US9861703B2 (Jinan Platinum Pharmatech Co. Ltd., priority 2013, dated 2018).
# Assays:
# liver cancer H22 [1] = experiment: Inhibition assay of intravenous administration against liver cancer H22 (Example 33); details: tail intravenous injection; for Number of mice alive: 7 mice per group, two cycles; for Tumor weight / inhibitory ratio (%): sacrificed after 13 days
# Procedure: Extracted the ascites from H22 ascites tumour bearing mice, washed the ascites with sterile PBS for three times and then resuspended the cells with sterile PBS (cells counts: 3.75×10^7 cells/mL), inoculated it into right oxter of Kunming mice 100 uL per mouse.
# The H22 tumor-bearing mice were randomized to 4 groups (7 mice per group) after being weighted. […] The size of tumor was measured by using a vernier calliper and weight of mouse by using an electronic balance at the beginning and ending of every cycle, then calculated their mean value. The mice were sacrificed after 13 days and the tumors were taken out and weighted. Tumor volume and inhibitory ratio were calculated as the following equation (L and W referred to length and width of tumor respectively): […]
# [2] = system: human liver cancer cell line H7402; experiment: MTT proliferation inhibition, H7402; assay type: cell-based; details: 48 h
# Procedure: (§1) Human leukemia cell line K562, clear-cell ovarian carcinoma cell line ES-2, human prostate cancer cell line PC-3, human breast cancer cell line MCF-7, cell line Hela, human liver cancer cell line H7402 and human ovarian cancer cell line 3-AO were transferred into a culture flask and were cultured in a medium at 37° C. in a 5% CO2 and saturation humidity. One bottle of cells in logarithmic growth phase was picked out and was blew and beaten to be uniform with a pipette, then took some cell suspension solution to prepare blood counting plate smear to count cells under inverted microscope, and then adjusted the cell number to be 1×10^5/mL by adding some culture medium. Cells were seeded on a 96-well plate on which also drug tests performed. Blank control group, negative control group, positive control group and drug test group were established on the plate while the surrounding wells of the plate were not used (but filled with sterile PBS), wherein the blank control groups were prepared by addition of culture medium 150 μL per well, the negative control groups were prepared by addition of cell suspension solution 100 μL per well and culture medium 50 μL per well, the positive control groups were prepared by addition of cell suspension solution 100 μL per well and positive control drug solution 50 μL per well, the drug test groups were prepared by addition of cell suspension solution 100 μL per well and test compound solution 50 μL per well, and there were 5 different concentrations of drug in the positive control group and the drug test group respectively: 0.01, 0.1, 1, 10, 100 μmol·L^−1, each concentration was established with 3 parallel wells. After the drug was added, the 96-well plate was incubated for 48 h at 37° C. in a CO2 incubator of 5% CO2 and saturation humidity. Upon completion of the incubation, 20 μL MTT solution (concentration was 5 mg/mL) was added to each well and incubated for an additional 4 h, and after the 96-well plate was centrifuged at 2000 rpm for 30 min, medium of each well was suck out carefully and removed and 100 μL DMSO was added instead, followed by vibrating on a tablet shaker for 15 min to re-dissolve formazan crystals completely. OD value of each well was measured at 570 nm wavelength using an enzyme-linked immunosorbent assay reader to calculate cellular proliferation inhibitory ratio of each drug in different concentrations. And half-inhibitory concentration (IC50) was calculated using statistical software SPSS 16.0, wherein the cellular proliferation inhibitory ratio can be calculated as following equation: […]
# [3] = system: human breast cancer cell line MCF-7; experiment: MTT proliferation inhibition, MCF-7; assay type: cell-based; details: 48 h
# Procedure: as §1
# cell line Hela = experiment: MTT proliferation inhibition, Hela; assay type: cell-based
# Procedure: as §1
# [4] = system: human leukemia cell line K562; experiment: MTT proliferation inhibition, K562; assay type: cell-based; details: 48 h
# Procedure: as §1
# liver cancer H22 [5] = experiment: Inhibition assay of oral administration against liver cancer H22 (Example 33); assay type: in vivo, Kunming mice; details: oral gavage, 100 mg/kg/d, sacrificed after 13 days
# Procedure: (1) the negative control: PBS; (2) Xeloda group: 100 mg/kg/d; (3) TFU group: 70 mg/kg/d; (4) BC-01 group: 100 mg/kg/d.
# [formula] [formula] [formula] 2.2: Inhibition Assay of Intravenous Administration Against Liver Cancer H22
# [6] = system: human ovarian cancer cell line 3-AO; experiment: MTT proliferation inhibition, 3-AO; assay type: cell-based; details: 48 h
# Procedure: as §1
Structure (SMILES),Number of mice alive (liver cancer H22 [1]; 70 mg/kg/d),Body weight(g) Beginning (liver cancer H22 [1]; 70 mg/kg/d) [g],Body weight(g) Ending (liver cancer H22 [1]; 70 mg/kg/d) [g],Tumor weight (liver cancer H22 [1]; 70 mg/kg/d) [g],inhibitory ratio (%) (liver cancer H22 [1]; 70 mg/kg/d),EC50 [2] [µM],Number of mice alive (liver cancer H22 [1]; 50 mg/kg/d),Body weight(g) Beginning (liver cancer H22 [1]; 50 mg/kg/d) [g],Body weight(g) Ending (liver cancer H22 [1]; 50 mg/kg/d) [g],Tumor weight (liver cancer H22 [1]; 50 mg/kg/d) [g],inhibitory ratio (%) (liver cancer H22 [1]; 50 mg/kg/d),EC50 [3] [µM],proliferation inhibition activity against Hela compared with ubenimex and 5-FU (cell line Hela),EC50 (cell line Hela; 48 h) [µM],EC50 [4] [µM],"Tumor weight (liver cancer H22 [5]; two cycles (5 days on, 2 off)) [g]",inhibitory ratio (%) (liver cancer H22 [5]; two cycles),EC50 [6] [µM]
"CC(C)C[C@H](NC(=O)[C@@H](O)[C@H](N)Cc1ccccc1)C(=O)NCC(=O)OCn1cc(F)c(=O)[nH]c1=O.Cl [BC-02, (5-fluoro-2,4-dioxo-3,4-dihydropyrimidinyl-1(2H))methyl-2-((S)-2-((2S,3R)-3-amino-2-hydroxy-4-phenylbutanamido)-4-methylpentanamido)acetate hydrochloride]",7,31.81 ± 4.99,32.83 ± 4.64,0.63 ± 0.01,54.31,11,–,–,–,–,–,–,–,–,–,–,–,–
"CC(C)C[C@H](NC(=O)[C@@H](O)[C@H](N)Cc1ccccc1)C(=O)OCn1cc(F)c(=O)[nH]c1=O.Cl [BC-01, (S)-(5-fluoro-2,4-dioxo-3,4-dihydropyrimidinyl-1(2H))methyl-2-((2S,3R)-3-(amino)-2-hydroxy-4-phenylbutyryl)-4-methylpentanoate hydrochloride]",7,30.00 ± 1.15,31.05 ± 1.78,0.37 ± 0.08,73.00,1.86,7,30.32 ± 1.57,31.53 ± 4.71,0.58 ± 0.12,57.66,1.35,much higher proliferation inhibition activity,0.73,5.82,0.26,66.67,2.59
